Source: patent US8183236B2, “Compounds with HIV-1 integrase inhibitory activity and use thereof as anti-HIV/AIDS therapeutics” (University of Southern California, priority 2007, dated 2012)

How the values were obtained:
[1] = target: T1, HIV-1 integrase (wild-type IN) (Human immunodeficiency virus type 1 group M subtype B, UniProt P12497); experiment: HIV-1 integrase strand transfer assay (32P-labeled 21-mer, gel); type: biochemical
Text: (§1) The oligonucleotides 21 top, 5′-[…]-3′ (SEQ ID NO:1) and 21 bot, 5′-[…]-3′ (SEQ ID NO:2) were purchased from Norris Cancer Center Core Facility (University of Southern California) and purified by UV shadowing on polyacrylamide gel. To analyze the extent of 3′-processing and strand transfer using 5′-end labeled substrates, 21 top was 5′-end labeled using T4 polynucleotide kinase (Epicentre, Madison, Wis.) and γ [^32P]-ATP (Amersham Biosciences or ICN). The kinase was heat-inactivated and 21 bot was added in 1.5-molar excess. The mixture was heated at 95° C., allowed to cool slowly to room temperature, and run through a spin 25 mini-column (USA Scientific) to separate annealed double-stranded oligonucleotide from unincorporated material.
(§2) To determine the extent of 3′-processing and strand transfer, wild-type IN was preincubated at a final concentration of 200 nM with the inhibitor in reaction buffer (50 mM NaCl, 1 mM HEPES, pH 7.5, 50 μM EDTA, 50 μM dithiothreitol, 10% glycerol (w/v), 7.5 mM MnCl2, 0.1 mg/ml bovine serum albumin, 10 mM 2-mercaptoethanol, 10% dimethyl sulfoxide, and 25 mM MOPS, pH 7.2) at 30° C. for 30 min. Then, 20 nM of the 5′-end ^32P-labeled linear oligonucleotide substrate was added, and incubation was continued for an additional one hour. Reactions were quenched by the addition of an equal volume (16 μl) of loading dye (98% deionized formamide, 10 mM EDTA, 0.025% xylene cyanol and 0.025% bromophenol blue). An aliquot (5 μl) was electrophoresed on a denaturing 20% polyacrylamide gel (0.09 M tris-borate pH 8.3, 2 mM EDTA, 20% acrylamide, 8M urea).
(§3) Gels were dried, exposed in a PhosphorImager cassette, and analyzed using a Typhoon 8610 Variable Mode Imager (Amersham Biosciences) and quantitated using ImageQuant 5.2. Percent inhibition (% I) was calculated using the following equation: %I=100×[1−(D−C)/(N−C)]
(§4) where C, N, and D are the fractions of 21-mer substrate converted to 19-mer (3′-processing product) or strand transfer products for DNA alone, DNA plus IN, and IN plus drug, respectively. The IC50 values were determined by plotting the logarithm of drug concentration versus percent inhibition to obtain concentration that produced 50% inhibition. […]

[2] = target: T1, HIV-1 integrase (wild-type IN); experiment: HIV-1 integrase 3′-processing assay (32P-labeled 21-mer, gel); type: biochemical
Text: as §1, §2, §3, §4

[3] = Table 54, read-out: IN inhibition activity Strand transfer
[4] = Table 54, read-out: IN inhibition activity 3′-processing
[5] = unit inferred, read-out: HIV-1 IN Inhibitory Activities Strand transfer
[6] = unit inferred, read-out: HIV-1 IN Inhibitory Activities 3′-processing
[7] = unit inferred, read-out: IN inhibition activity Strand transfer
[8] = unit inferred, read-out: IN inhibition activity 3′-processing
[9] = wild-type IN 200 nM, 7.5 mM MnCl2, read-out: Inhibition of IN Catalytic Activities IC50 (μM) Strand Transfer
[10] = wild-type IN 200 nM, 7.5 mM MnCl2, read-out: Inhibition of IN Catalytic Activities IC50 (μM) 3′-processing
[11] = Table 53, structurally diverse compounds, read-out: IN inhibition activity Strand transfer
[12] = Table 53, structurally diverse compounds, read-out: IN inhibition activity 3′-processing

Row | Structure (SMILES) | IC50 [1, 7] [µM] | IC50 [2, 8] [µM] | IC50 [1, 9] [µM] | IC50 [2, 10] [µM] | further results
1 | CCOc1cc(N(CC)CC)ccc1/C=C1\C(=O)N(c2nnn[nH]2)N=C1C [GLD12A1] | – | – | – | – | IC50 [1, 3]: 65 ± 8 µM; IC50 [2, 4]: 61 ± 8 µM
2 | O=C(O)C(Cc1c[nH]c2ccccc12)NS(=O)(=O)c1ccccc1[N+](=O)[O-] (stereo not drawn) [Example X182] | – | – | – | – | IC50 [1, 5]: 56 µM; IC50 [2, 6]: 88 µM
3 | O=C(O)c1cccc(-c2ccc(/C=N/NC(=O)c3cccnc3)o2)c1 [AV15A4] | 96 ± 6 | > 100 | – | – | –
4 | O=c1cc(-c2ccccc2)c2ccc(O)c(O)c2o1 [SR44] | – | – | 16 | 32 | –
5 | COc1ccccc1-n1c(SCC(=O)NNC(=O)c2ccccc2O)nnc1-c1ccccc1O [AS9A6] | 6 ± 1 | 8 ± 1 | – | – | –
6 | Cc1ccc2nc(-c3ccc(NC(=O)/C=C/C(=O)O)cc3)sc2c1 [GLD28] | – | – | – | – | IC50 [1, 11]: 23 ± 4 µM; IC50 [2, 12]: 48 ± 19 µM
7 | O=C(Cc1ccccc1)Nc1cc(C(=O)O)c(NC(=O)Cc2ccccc2)cc1C(=O)O [Compound X7] | – | – | 7 | 9 | –
8 | O=C(O)c1c[nH]c2c(F)c(F)c(F)c(NCc3ccccc3)c2c1=O [ROM3] | – | – | 12 | > 12 | –
9 | COc1ccc2oc(=O)c(-c3csc(N/N=C/c4ccco4)n3)cc2c1 [Compound X144] | – | – | – | – | IC50 [1, 5]: 29 µM; IC50 [2, 6]: 78 µM
10 | COc1cc(C=C2SC(=S)N(CCC(=O)Nc3ccc(C(=O)O)cc3)C2=O)cc(OC)c1OC [Compound X173] | – | – | 85 ± 15 | 97 ± 6 | –
11 | N#Cc1c(-c2ccc(F)cc2)cc(C2CC2)nc1SCCN1C(=O)c2ccccc2C1=O [OT33] | – | – | 95 ± 11 | > 100 | –
12 | CCc1ccc(C=C2SC(=S)N(CCC(=O)Nc3ccc(O)c(C(=O)O)c3)C2=O)cc1 [Compound X170] | – | – | 11 ± 5 | 15 ± 3 | –
13 | N=C1S/C(=C/c2ccc(-c3ccccc3C(=O)O)o2)C(=O)N1c1ccc2c(c1)OCO2 [Compound T36] | 6.5 ± 1 | 12 ± 6 | – | – | –
14 | O=C(N/N=C/c1ccc(-c2ccc(O)c(C(=O)O)c2)o1)c1cccnc1 [SA1] | 9 ± 5 | 59 ± 1 | 9 | 59 | –
15 | O=C(N/N=C1\C(=O)Nc2ccc(Br)cc21)/C(O)=C/C(=O)c1ccc(Cl)cc1 [Example X115] | – | – | – | – | IC50 [1, 5]: 28 µM; IC50 [2, 6]: 42 µM
16 | O=C(O)CCCCCN1C(=O)C(O)=C(C(=O)c2ccc(Cl)cc2)C1c1ccc2c(c1)OCO2 (stereo not drawn) [Compound T38] | 20 | 25 | – | – | IC50 [1, 5]: 20 µM; IC50 [2, 6]: 25 µM
17 | O=C(CCN1C(=O)/C(=C/c2cccs2)SC1=S)Nc1ccc2ccccc2c1 [Compound X174] | – | – | > 100 | > 100 | –
18 | O=C(CCN1C(=O)C(=Cc2ccc3c(c2)OCO3)SC1=S)Nc1ccc(C(=O)O)c(O)c1 [Compound X188] | – | – | 23 ± 13 | 33 ± 23 | –
19 | Cc1ccc2ccc(C(Nc3ccccn3)c3ccc(F)cc3)c(O)c2n1 (stereo not drawn) [RT30] | – | – | > 100 | > 100 | –
20 | N=C1NC(=O)/C(=C\c2ccc(-c3cccc(C(=O)O)c3)o2)S1 [AV15A2] | 90 ± 17 | > 100 | – | – | –
21 | O=C(N/N=C/c1ccc(-c2ccc(Cl)c(C(=O)O)c2)o1)c1ccc(F)cc1 [AV15A41] | > 100 | > 100 | – | – | –
22 | COc1ccc(/C=C2/SC(=S)N(CC(=O)O)C2=O)cc1CCc1ccc(Cl)cc1Cl [OT6] | – | – | 13 ± 7 | 17 ± 4 | –
23 | N#C/C(=C\c1ccc(-c2ccc(Cl)c(C(=O)O)c2)o1)c1nc2ccccc2[nH]1 [AV15A10] | 30 | 76 | – | – | –
24 | O=C(Cc1ccc(F)cc1)N/N=C/c1ccc(-c2ccc(Cl)c(C(=O)O)c2)o1 [AV15A47] | > 100 | > 100 | – | – | –
25 | O=C(Nc1ccc(O)c(-c2nc3ccccc3o2)c1)c1ccccc1F [XR19] | – | – | – | – | IC50 [1, 5]: < 100 µM; IC50 [2, 6]: < 100 µM
26 | Cc1ccc(C(=O)C2=C(O)C(=O)N(c3nccs3)C2c2ccc(Cl)cc2)cc1 (stereo not drawn) [Compound M28A6] | 39 ± 3 | 56 ± 10 | – | – | –
27 | O=C(CSc1nnc(-c2ccc(Cl)cc2)n1-c1ccccc1)NNC(=O)c1ccccc1O [AS9A9] | 5 ± 1 | 11 ± 3 | – | – | –
28 | COc1ccc(-n2c(Cc3ccccc3)nnc2SCC(=O)NNC(=O)c2ccccc2O)cc1 [AS9A2] | 17 ± 1 | 18 ± 1 | – | – | –

Row | Structure (SMILES) | IC50 [1, 7] [µM] | IC50 [2, 8] [µM] | IC50 [1, 9] [µM] | IC50 [2, 10] [µM] | further results
29 | O=C(NC1CC1)c1c[nH]c2ccc(S(=O)(=O)Nc3cccc(C(F)(F)F)c3)cc2c1=O [ROM3A10] | – | – | 92 | 93 | –
30 | O=C(CSc1nc2ccccc2n1Cc1ccccc1)N/N=C/c1cc(Br)ccc1O [Compound X244] | 51 ± 3 | 60 ± 11 | – | – | –
31 | COc1ccc(C(=O)Nc2ccc(O)c(-c3nc4ccccc4o3)c2)cc1[N+](=O)[O-] [XR17] | – | – | – | – | IC50 [1, 5]: 7 µM; IC50 [2, 6]: 6 µM
32 | O=C(CCN1C(=O)C(=Cc2cccs2)SC1=S)Nc1cccc(O)c1 [Compound X177] | – | – | > 100 | > 100 | –
33 | CCOc1ccc2c(c1)C(=C1SC(C(=O)OC)=C(C(=O)OC)S1)C(=S)C(C)(C)N2C(=O)c1ccccc1F [OT2] | – | – | 95 ± 9 | > 100 | –
34 | O=C(CSc1nnc(-c2ccncc2)n1-c1ccc(F)cc1)NNC(=O)c1ccccc1O [AS9A7] | 31 ± 2 | 49 ± 1 | – | – | –
35 | CC1=NN(c2nnn[nH]2)C(=O)/C1=C\c1cc(Cl)c(O)c(Cl)c1 [GLD12A5] | – | – | – | – | IC50 [1, 3]: 13 ± 11 µM; IC50 [2, 4]: 11 ± 3 µM
36 | O=C(C1=C(O)C(=O)N(c2nc3ccccc3s2)C1c1ccccn1)c1ccc(Cl)cc1 (stereo not drawn) [Compound M28A22] | 83 ± 12 | > 100 | – | – | –
37 | Cc1ccc(C(=O)N/C(=C/c2ccc(-c3ccc(Cl)cc3Cl)o2)C(=O)NCCCO)cc1 [Example X280] | – | – | – | – | IC50 [1, 5]: 85 µM; IC50 [2, 6]: > 1000 µM
38 | CCCc1cc2c(-c3ccccc3)cc(=O)oc2cc1OCc1ccc(C(=O)O)o1 [OT32] | – | – | 57 ± 22 | 72 ± 8 | –
39 | O=C(O)C1CCCCC1C(=O)Nc1ccc(Oc2cccc3ccccc23)cc1 (stereo not drawn) [GLD32] | – | – | – | – | IC50 [1, 11]: 34 ± 7 µM; IC50 [2, 12]: > 100 µM
40 | O=C(CCN1C(=O)C(=Cc2cccs2)SC1=S)Nc1ccc(O)c(C(=O)O)c1 [Compound X172] | – | – | 38 ± 16 | 38 ± 16 | –
41 | CCOc1ccc(C=C2SC(=S)N(CCC(=O)Nc3cccc(C(=O)O)c3)C2=O)cc1 [Compound X95] | – | – | > 100 | 93 ± 12 | –
42 | O=C(O)c1cc(NC(=O)c2cccc3ccccc23)c(C(=O)O)cc1NC(=O)c1cccc2ccccc12 [Compound X8] | – | – | 21 | 28 | –
43 | CC(C)(C)c1ccc(C2C(C(=O)c3ccc(F)cc3)=C(O)C(=O)N2c2nncs2)cc1 (stereo not drawn) [Compound M28A2] | 43 ± 8 | 64 ± 28 | – | – | –
44 | Cc1cc([N+](=O)[O-])ccc1-c1ccc(/C=C/c2ccc3cccc(O)c3n2)o1 [RT31] | – | – | > 100 | 57 | –
45 | Cc1ccc(C=C2SC(=S)N(CC(=O)Nc3cc([N+](=O)[O-])ccc3O)C2=O)cc1 [Compound X191] | – | – | 80 ± 18 | 84 ± 24 | –
46 | CC(=O)C1=C(O)C(=O)N(CC(=O)O)C1c1ccc(Br)cc1 (stereo not drawn) [Compound X36] | – | – | – | – | IC50 [1, 5]: > 100 µM; IC50 [2, 6]: > 100 µM
47 | CCOC(=O)N1CCN(C(=O)CCN2C(=O)/C(=C/c3ccc(OC)c(OC)c3)SC2=S)CC1 [Compound X90] | – | – | > 100 | > 100 | –
48 | O=C(/C=C/c1ccco1)NC(=S)Nc1ccccc1O [Example X205] | – | – | – | – | IC50 [1, 5]: 28 µM; IC50 [2, 6]: 57 µM
49 | CC(=Cc1ccccc1)C=C1SC(=S)N(CCC(=O)Nc2ccc(O)c(C(=O)O)c2)C1=O [Compound X185] | – | – | 23 ± 3 | 36 ± 23 | –
50 | COc1ccccc1C(=O)Nc1ccc(O)c(-c2nc3cc(C)ccc3o2)c1 [XR22] | – | – | – | – | IC50 [1, 5]: < 100 µM; IC50 [2, 6]: < 100 µM
51 | COc1cc(C=C2SC(=S)N(CC(=O)Nc3cc(Cl)ccc3O)C2=O)cc(OC)c1OC [Compound X171] | – | – | 17 ± 2 | 32 ± 11 | –
52 | O=C(CN1C(=O)C(=Cc2ccccc2Cl)SC1=S)Nc1cc([N+](=O)[O-])ccc1O [Compound X194] | – | – | 18 ± 11 | 20 ± 7 | –
53 | O=C(Nc1ccc(O)c(-c2nc3ccccc3o2)c1)c1cccc2ccccc12 [XR21] | – | – | – | – | IC50 [1, 5]: 6 µM; IC50 [2, 6]: 14 µM
54 | O=C(O)CSc1nc(-c2cccs2)cc(C(F)(F)F)n1 [GLD2A10] | > 100 | > 100 | – | – | –
55 | O=C(O)CCN1C(=O)/C(=C\c2ccc(-c3cccc(Cl)c3)o2)SC1=S [RT23] | – | – | 21 | > 100 | –
